Measurements: patent publication US5759565A, “Galenic compositions comprising calcitonin and their use” (Novartis Corporation, priority 1982, dated 1998)

Legend:
[1] = test system: ciliary beating frequency of rat trachea; experiment: Ciliary beating frequency, microphoto-oscillographic method of L. Chevance et al; format: cell-based; settings: at 0.6%; within 20 minutes
Description: 70, […] (1970). These are just some of the disadvantageous effects that can be encountered.
Moreover the compositions are well tolerated as indicated in standard tests, e.g. in that less than 50% inhibition of ciliary beating frequency is observed up to 20 minutes after administration, according to the microphoto-oscillographic method of L. Chevance et al, Acta Otolaryng. 70, 26-28 (1970).

[2] = Relative bio-availability study: nasal administration/intra-muscular injection of salmon calcitonin, serum level by radio-immuno-assay; format: in vivo, human (healthy volunteers)
Description: The study is conducted with 12 healthy volunteers, 6 male and 6 female, with a body weight of from 50 to 85 kg. Each subject receives 4 administrations of salmon calcitonin, one intra-muscularly and 3 nasally. Administration is effected at the following dosages:
Nasal administration is effected using composition in accordance with example 1 and a spray-applicator delivering 55 MRC units per individual spray dosage. For the purposes of administration the subject is laid on the back with the head tilted backwards for 5 minutes. The nostrils are cleaned by blowing of the nose immediately prior to administration.
Intra-muscular administration is effected by injection of a single 1 ml dose of a composition similar to that of example 1, but omitting benzalkonium chloride and containing 50 MRC units into the glutaeus medius muscle.
Each subject receives the 4 administrations in randomized sequence, and at least 3 days are allowed between consecutive administrations. Each administration is effected in the morning after a light breakfast from which milk, butter and cheese is excluded. 100 ml water or orange juice is taken hourly following treatment to maintain urinary output. Further food is allowed not earlier than 4 hours after treatment.
Blood samples are taken immediately prior to administration (control), and at intervals of 5, 15, 30, 60, 90, 120, 180, 240, 360 and 480 minutes following administration. For the control a 20 ml sample is taken. All subsequent samples are 2 ml samples.
The concentration of salmon calcitonin in each serum sample is measured by radio-immuno-assay. Blood-pressure is controlled during the course of the trial and urine-samples tested for possible adverse reaction. Occurrence of side-effects, e.g. symptoms of nausea, is noted.
The AUC ("area under curve") for salmon calcitonin plasma concentration is calculated statistically, once employing all value, including those below the 26 pg/ml detectability limit, once with values below the detectability limit read as zero. Maximal plasma concentration and time at which this is reached are also determined. […]

AUC of serum concentration compared with 50 MRC units i.m. ([2]; 110 MRC units intra-nasally)	AUC of serum concentration compared with 50 MRC units i.m. ([2]; 220 MRC units intra-nasally)	Compound	inhibition of the ciliary beating frequency of rat trachea [1]	adverse side-effects ([2]; nasal administrations, up to the highest dosage of 220 MRC units)
–	–	CC(C)(O)C(Cl)(Cl)Cl [chlorbutanol]	more than 50%	–
comparable	comparable	CC(C)C[C@H](NC(=O)[C@H](CCCCN)NC(=O)CNC(=O)[C@H](CC(C)C)NC(=O)[C@@H](NC(=O)[C@@H]1CSSC[C@H](N)C(=O)N[C@@H](CO)C(=O)N[C@@H](CC(N)=O)C(=O)N[C@@H](CC(C)C)C(=O)N[C@@H](CO)C(=O)N[C@@H]([C@@H](C)O)C(=O)N1)C(C)C)C(=O)N[C@@H](CO)C(=O)N[C@@H](CCC(N)=O)C(=O)N[C@@H](CCC(=O)O)C(=O)N[C@@H](CC(C)C)C(=O)N[C@@H](Cc1c[nH]cn1)C(=O)N[C@@H](CCCCN)C(=O)N[C@@H](CC(C)C)C(=O)N[C@@H](CCC(N)=O)C(=O)N[C@H](C(=O)N[C@@H](Cc1ccc(O)cc1)C(=O)N1CCC[C@H]1C(=O)N[C@@H](CCCNC(=N)N)C(=O)N[C@H](C(=O)N[C@@H](CC(N)=O)C(=O)N[C@H](C(=O)NCC(=O)N[C@@H](CO)C(=O)NCC(=O)N[C@H](C(=O)N1CCC[C@H]1C(N)=O)[C@@H](C)O)[C@@H](C)O)[C@@H](C)O)[C@@H](C)O [salmon calcitonin]	–	No adverse side-effects were recorded
